Test results as given in patent USRE48097E1, “Cephem compounds, their production and use” (priority 2015, dated 2020).
In brackets after ≈: the same amount, converted by molar mass. Read-outs that look alike come from different tables or passages of the source.

Assays:
Format in all cases: cell-based
K. pneumoniae 4107 = assay: MIC against K. pneumoniae 4107; conditions: K. pneumoniae 4107, KPC-2, TEM-1, SHV-11
Experimental: (§1) As shown, the foregoing composition was tested for minimum inhibitory concentration (MIC, μg/mL) against bacteria listed in Tables 2-3.

K. pneumoniae 2713 = assay: MIC against K. pneumoniae 2713; conditions: Table 3, K. pneumoniae 2713, KPC-3, VIM-1
Experimental: as §1

K. pneumoniae 4104 = assay: MIC against K. pneumoniae 4104; conditions: K. pneumoniae 4104, KPC-3, TEM-1
Experimental: as §1

K. pneumoniae 2689 = assay: MIC against K. pneumoniae 2689; conditions: K. pneumoniae 2689, KPC-2
Experimental: as §1

K. pneumoniae 4088 = assay: MIC against K. pneumoniae 4088; conditions: Table 3, K. pneumoniae 4088, KPC-3
Experimental: as §1

E. cloacae 2710 = assay: MIC against E. cloacae 2710; conditions: Table 3, E. cloacae 2710, KPC-3, VIM-1
Experimental: as §1

K. pneumoniae 4105 = assay: MIC against K. pneumoniae 4105; conditions: K. pneumoniae 4105, KPC-3, TEM-1, SHV-11
Experimental: as §1

E. cloacae 2705 = assay: MIC against E. cloacae 2705; conditions: Table 3, E. cloacae 2705, VIM-1, KPC-3type
Experimental: as §1

K. pneumoniae 4106 = assay: MIC against K. pneumoniae 4106; conditions: K. pneumoniae 4106, KPC-3, TEM-1, SHV-12, SHV-141
Experimental: as §1

E. coli 4103 = assay: MIC against E. coli 4103; conditions: Table 3, E. coli 4103, KPC-2, TEM-1, CMY-type
Experimental: as §1

E. cloacae 2706 = assay: MIC against E. cloacae 2706; conditions: Table 3, E. cloacae 2706, VIM-1, KPC-3
Experimental: as §1

E. coli 2666 = assay: MIC against E. coli 2666; conditions: Table 3, E. coli 2666, KPC-2
Experimental: as §1

E. cloacae 2709 = assay: MIC against E. cloacae 2709; conditions: Table 3, E. cloacae 2709, KPC-3, VIM-1
Experimental: as §1

P. aeruginosa 2686 = assay: MIC against P. aeruginosa 2686; conditions: Table 3, P. aeruginosa 2686, KPC-2
Experimental: as §1

K. pneumoniae 2712 = assay: MIC against K. pneumoniae 2712; conditions: Table 3, K. pneumoniae 2712, KPC-3, VIM-1
Experimental: as §1

K. pneumoniae 2711 = assay: MIC against K. pneumoniae 2711; conditions: Table 3, K. pneumoniae 2711, KPC-3, VIM-1
Experimental: as §1

K. pneumoniae 2690 = assay: MIC against K. pneumoniae 2690; conditions: Table 3, K. pneumoniae 2690, KPC-2
Experimental: as §1

E. cloacae 2689 = assay: MIC against E. cloacae 2689; conditions: Table 3, E. cloacae 2689, KPC-2
Experimental: as §1

K. pneumoniae 4108 = assay: MIC against K. pneumoniae 4108; conditions: K. pneumoniae 4108, KPC-3, TEM-166, SHV-12, SHV-141
Experimental: as §1

[1] = Klebsiella pneumoniae, 4107, Table 3, alone, read-out: MIC
[2] = Table 3, in combination with NXL-104
[3] = Klebsiella pneumoniae, alone, read-out: MIC
[4] = Klebsiella pneumoniae, 4104, Table 3, alone, read-out: MIC
[5] = Klebsiella pneumoniae, 2689, Table 3, alone, read-out: MIC
[6] = Enterobacter cloacae, alone, read-out: MIC
[7] = Klebsiella pneumoniae, 4105, Table 3, alone, read-out: MIC
[8] = Klebsiella pneumoniae, 4106, Table 3, alone, read-out: MIC
[9] = Escherichia coli, alone, read-out: MIC
[10] = Pseudomonas aeruginosa, alone, read-out: MIC
[11] = Klebsiella pneumoniae, 4108, Table 3, alone, read-out: MIC

MIC (K. pneumoniae 4107; [1]) [µg/mL]	MIC (K. pneumoniae 4107; [2]) [µg/mL]	MIC (K. pneumoniae 2713; [3]) [µg/mL]	MIC (K. pneumoniae 2713; in combination with NXL-104) [µg/mL]	MIC (K. pneumoniae 4104; [4]) [µg/mL]	MIC (K. pneumoniae 4104; [2]) [µg/mL]	MIC (K. pneumoniae 2689; [5]) [µg/mL]	MIC (K. pneumoniae 2689; [2]) [µg/mL]	MIC (K. pneumoniae 4088; [3]) [µg/mL]	MIC (K. pneumoniae 4088; in combination with NXL-104) [µg/mL]	MIC (E. cloacae 2710; [6]) [µg/mL]	MIC (E. cloacae 2710; in combination with NXL-104) [µg/mL]	MIC (K. pneumoniae 4105; [7]) [µg/mL]	MIC (K. pneumoniae 4105; [2]) [µg/mL]	MIC (E. cloacae 2705; [6]) [µg/mL]	MIC (E. cloacae 2705; in combination with NXL-104) [µg/mL]	MIC (K. pneumoniae 4106; [8]) [µg/mL]	MIC (K. pneumoniae 4106; [2]) [µg/mL]	MIC (E. coli 4103; [9]) [µg/mL]	MIC (E. coli 4103; in combination with NXL-104) [µg/mL]	Compound	other results
32 (≈ 45.3 µM)	2	> 32	2	16 (≈ 22.6 µM)	1	16 (≈ 22.6 µM)	1	> 32	4	> 32	>32	> 32	2	> 32	>32	32 (≈ 45.3 µM)	4	> 32	8	CC(C)(O/N=C(\C(=O)N[C@@H]1C(=O)N2C(C(=O)[O-])=C(C[n+]3ccc4n(Cc5ccc(C(=N)N)cc5)ccn43)CS[C@H]12)c1csc(N)n1)C(=O)O [Example 4, (6R,7R)-7-{[(2Z)-2-(2-Amino-1,3-thiazol-4-yl)-2-{[(2-carboxypropan-2-yl)oxy]imino}acetyl]amino}-3-{[1-(4-carbamimidoylbenzyl)-1H-imidazo[1,2-b]pyrazol-5-ium-5-yl]methyl}-8-oxo-5-thia-1-azabicyclo[4.2.0]oct-2-ene-2-carboxylate]	MIC (E. cloacae 2706; [6]): > 32 µg/mL; MIC (E. cloacae 2706; in combination with NXL-104): 32 µg/mL; MIC (E. coli 2666; [9]): 32 µg/mL (≈ 45.3 µM); MIC (E. coli 2666; in combination with NXL-104): 2 µg/mL; MIC (E. cloacae 2709; [6]): 8 µg/mL (≈ 11.3 µM); MIC (E. cloacae 2709; in combination with NXL-104): 4 µg/mL; MIC (P. aeruginosa 2686; [10]): 32 µg/mL (≈ 45.3 µM); MIC (P. aeruginosa 2686; in combination with NXL-104): 8 µg/mL; MIC (K. pneumoniae 2712; [3]): > 32 µg/mL; MIC (K. pneumoniae 2712; in combination with NXL-104): 4 µg/mL; MIC (K. pneumoniae 2711; [3]): 8 µg/mL (≈ 11.3 µM); MIC (K. pneumoniae 2711; in combination with NXL-104): 1 µg/mL; MIC (K. pneumoniae 2690; [3]): 16 µg/mL (≈ 22.6 µM); MIC (K. pneumoniae 2690; in combination with NXL-104): 2 µg/mL; MIC (E. cloacae 2689; [6]): 4 µg/mL (≈ 5.66 µM); MIC (E. cloacae 2689; in combination with NXL-104): 0.5 µg/mL; MIC (K. pneumoniae 4108; [11]): > 32 µg/mL; MIC (K. pneumoniae 4108; [2]): 2 µg/mL
16 (≈ 21 µM)	1	> 32	2	16 (≈ 21 µM)	1	16 (≈ 21 µM)	1	> 32	2	> 32	>32	32 (≈ 42 µM)	2	> 32	>32	32 (≈ 42 µM)	2	> 32	4	CO/N=C(\C(=O)N[C@@H]1C(=O)N2C(C(=O)[O-])=C(C[n+]3ccc4c(ccn4Cc4cc(C(=N)Nc5ccccc5)cs4)c3)CS[C@H]12)c1nc(N)sc1Cl [Example 12, (6R,7R)-7-{[(2Z)-2-(2-Amino-5-chloro-1,3-thiazol-4-yl)-2-(methoxyimino)acetyl]amino}-8-oxo-3-[(1-{[4-(N-phenylcarbamimidoyl)thiophen-2-yl]methyl}-1H-pyrrolo[3,2-c]pyridin-5-ium-5-yl)methyl]-5-thia-1-azabicyclo[4.2.0]oct-2-ene-2-carboxylate]	MIC (E. cloacae 2706; [6]): > 32 µg/mL; MIC (E. cloacae 2706; in combination with NXL-104): >32 µg/mL; MIC (E. coli 2666; [9]): 16 µg/mL (≈ 21 µM); MIC (E. coli 2666; in combination with NXL-104): 1 µg/mL; MIC (E. cloacae 2709; [6]): 32 µg/mL (≈ 42 µM); MIC (E. cloacae 2709; in combination with NXL-104): 4 µg/mL; MIC (P. aeruginosa 2686; [10]): 32 µg/mL (≈ 42 µM); MIC (P. aeruginosa 2686; in combination with NXL-104): 32 µg/mL; MIC (K. pneumoniae 2712; [3]): > 32 µg/mL; MIC (K. pneumoniae 2712; in combination with NXL-104): 4 µg/mL; MIC (K. pneumoniae 2711; [3]): 4 µg/mL (≈ 5.25 µM); MIC (K. pneumoniae 2711; in combination with NXL-104): 0.5 µg/mL; MIC (K. pneumoniae 2690; [3]): 8 µg/mL (≈ 10.5 µM); MIC (K. pneumoniae 2690; in combination with NXL-104): 1 µg/mL; MIC (E. cloacae 2689; [6]): 32 µg/mL (≈ 42 µM); MIC (E. cloacae 2689; in combination with NXL-104): 1 µg/mL; MIC (K. pneumoniae 4108; [11]): 32 µg/mL (≈ 42 µM); MIC (K. pneumoniae 4108; [2]): 1 µg/mL
16 (≈ 20.8 µM)	2	> 32	2	32 (≈ 41.6 µM)	1	32 (≈ 41.6 µM)	1	> 32	4	> 32	>32	> 32	2	> 32	>32	> 32	4	> 32	8	CO/N=C(\C(=O)N[C@@H]1C(=O)N2C(C(=O)[O-])=C(C[n+]3ccc4c(ccn4Cc4cc(C(=N)Nc5nccs5)cs4)c3)CS[C@H]12)c1nc(N)sc1Cl [Example 14, (6R,7R)-7-{[(2Z)-2-(2-Amino-5-chloro-1,3-thiazol-4-yl)-2-(methoxyimino)acetyl]amino}-8-oxo-3-{[1-({4-[N-(1,3-thiazol-2-yl)carbamimidoyl]thiophen-2-yl}methyl)-1H-pyrrolo[3,2-c]pyridin-5-ium-5-yl]methyl}-5-thia-1-azabicyclo[4.2.0]oct-2-ene-2-carboxylate]	MIC (E. cloacae 2706; [6]): > 32 µg/mL; MIC (E. cloacae 2706; in combination with NXL-104): 32 µg/mL; MIC (E. coli 2666; [9]): 32 µg/mL (≈ 41.6 µM); MIC (E. coli 2666; in combination with NXL-104): 1 µg/mL; MIC (E. cloacae 2709; [6]): 32 µg/mL (≈ 41.6 µM); MIC (E. cloacae 2709; in combination with NXL-104): 4 µg/mL; MIC (P. aeruginosa 2686; [10]): > 32 µg/mL; MIC (P. aeruginosa 2686; in combination with NXL-104): 16 µg/mL; MIC (K. pneumoniae 2712; [3]): > 32 µg/mL; MIC (K. pneumoniae 2712; in combination with NXL-104): 4 µg/mL; MIC (K. pneumoniae 2711; [3]): 4 µg/mL (≈ 5.2 µM); MIC (K. pneumoniae 2711; in combination with NXL-104): 0.5 µg/mL; MIC (K. pneumoniae 2690; [3]): 32 µg/mL (≈ 41.6 µM); MIC (K. pneumoniae 2690; in combination with NXL-104): 1 µg/mL; MIC (E. cloacae 2689; [6]): 16 µg/mL (≈ 20.8 µM); MIC (E. cloacae 2689; in combination with NXL-104): 0.5 µg/mL; MIC (K. pneumoniae 4108; [11]): > 32 µg/mL; MIC (K. pneumoniae 4108; [2]): 2 µg/mL
